# From patent EP0326331B1, “Substituted quinolines and cinnolines” (Dow AgroSciences LLC, priority 1988, dated 1989)
# Key:
# Format in all cases: in vivo
# [1] = system: Puccinia recondita tritici (leaf rust); experiment: Test 1 greenhouse foliar spray screen, leaf rust on wheat; conditions: disease control rating, foliar spray on wheat, 400 ppm (+++ at 100 ppm)
# [2] = system: Venturia inaequalis (apple scab); experiment: Test 1 greenhouse foliar spray screen, apple scab on apple seedling; conditions: disease control rating, foliar spray on apple seedling, 400 ppm (+++ at 100 ppm)
# [3] = system: Twospotted spider mites (Tetranychus urticae Koch); experiment: Mite/insect screen, SM; conditions: Tetranychus urticae, percent mortality, SAW, read-out: SM RESULTS %; for mortality at 200 ppm: SM & MA RATE 200 PPM; for mortality at 400 ppm: SM & MA RATE 400 PPM
# Summary of the method: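 Foliar spray to runoff (10 psi), 1 h drying; aqueous dilutions from acetone/alcohol emulsifier stock. Mortality (%) after standard exposure.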
# [4] = system: Erysiphe graminis tritici (powdery mildew); experiment: Test 1 greenhouse foliar spray screen, powdery mildew on wheat; conditions: disease control rating, foliar spray on wheat, 400 ppm (+++ at 100 ppm)
# corn rootworm = experiment: Mite/insect screen, CRW; conditions: percent mortality, read-out: CRW RESULTS %; for mortality at 12 ppm: CRW RATE 12.00 PPM; for mortality at 24 ppm: CRW RATE 24.00 PPM
# Summary of the method: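 Read-out: % mortality after standard exposure. Formulation: acetone/alcohol (50:50) with emulsifiers at 23 g and 13 g per liter, water-diluted to final test levels.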
# [5] = system: melon aphids (Aphis gossypii Glover); experiment: Mite/insect screen, MA; conditions: Aphis gossypii, percent mortality, SAW, read-out: MA RESULTS %; for mortality at 200 ppm: SM & MA RATE 200 PPM; for mortality at 400 ppm: SM & MA RATE 400 PPM
# Summary of the method: (§1)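 Read-out: percent mortality after standard exposure periods. Test solutions were water dilutions of compound dissolved in acetone/alcohol (50:50) with emulsifier blends; leaves were sprayed to runoff on both surfaces and air-dried for one hour before exposure.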
# [6] = system: Cercospora beticola (leaf spot); experiment: Test 1 greenhouse foliar spray screen, leaf spot on sugar beet; conditions: disease control rating, foliar spray on sugar beet, 400 ppm (+++ at 100 ppm)
# [7] = system: Pseudoperonospora cubensis (downy mildew); experiment: Test 1 greenhouse foliar spray screen, downy mildew on squash; conditions: disease control rating, foliar spray on squash, 400 ppm (+++ at 100 ppm)
# [8] = system: Pyricularia oryzae (rice blast); experiment: whole plant or invertebrate; conditions: disease control rating, foliar spray on rice, 400 ppm (+++ at 100 ppm)
# [9] = system: Septoria tritici (leaf blotch); experiment: Test 1 greenhouse foliar spray screen, leaf blotch on wheat; conditions: disease control rating, foliar spray on wheat, 400 ppm (+++ at 100 ppm)
# [10] = system: southern armyworm (Spodopetra eridania Cramer); experiment: Mite/insect screen, SAW; conditions: Spodoptera eridania, percent mortality, SAW, read-out: SAW RESULTS %; for mortality at 200 ppm: SM & MA RATE 200 PPM; for mortality at 400 ppm: SM & MA RATE 400 PPM
# Summary of the method: as §1
# [11] = system: Botrytis cinerea (gray mold); experiment: Test 1 greenhouse foliar spray screen, gray mold on grape berries; conditions: disease control rating, spray on grape berries, 400 ppm (+++ at 100 ppm)
smiles,measurement,setting,value
"Fc1cccc2c(NCCCc3ccc(Cl)cc3)ccnc12 [Example 135, N-[3-(4-chlorophenyl)propyl]-8-fluoro-4-quinolinamine]",LEAF RUST,[1],- (0-19% control at 400 ppm)
same,APPL SCAB,[2],- (0-19% control at 400 ppm)
same,mortality at 200 ppm,[3],0%
same,mortality at 400 ppm,[3],0%
same,POWD MDEW,[4],- (0-19% control at 400 ppm)
same,mortality at 12 ppm,corn rootworm,0%
same,mortality at 24 ppm,corn rootworm,0%
same,mortality at 200 ppm,[5],0%
same,mortality at 400 ppm,[5],0%
same,LEAF SPOT,[6],- (0-19% control at 400 ppm)
same,DOWN MDEW,[7],+++ (90-100% control at 100 ppm)
same,RICE BLAST,[8],- (0-19% control at 400 ppm)
same,LEAF BLOT,[9],+ (20-89% control at 400 ppm)
same,mortality at 200 ppm,[10],0%
same,mortality at 400 ppm,[10],0%
same,GRAY MOLD,[11],- (0-19% control at 400 ppm)
"Clc1ccc(CCCNc2ccnc3cc(Cl)ccc23)cc1 [Example 136, N-[3-(4-chlorophenyl)propyl]-7-chloro-4-quinolinamine]",LEAF RUST,[1],- (0-19% control at 400 ppm)
same,APPL SCAB,[2],- (0-19% control at 400 ppm)
same,mortality at 200 ppm,[3],0%
same,mortality at 400 ppm,[3],0%
same,POWD MDEW,[4],+ (20-89% control at 400 ppm)
same,mortality at 12 ppm,corn rootworm,0%
same,mortality at 24 ppm,corn rootworm,0%
same,mortality at 200 ppm,[5],0%
same,mortality at 400 ppm,[5],0%
same,LEAF SPOT,[6],- (0-19% control at 400 ppm)
same,DOWN MDEW,[7],+++ (90-100% control at 100 ppm)
same,RICE BLAST,[8],- (0-19% control at 400 ppm)
same,LEAF BLOT,[9],- (0-19% control at 400 ppm)
same,mortality at 200 ppm,[10],0%
same,mortality at 400 ppm,[10],0%
same,GRAY MOLD,[11],- (0-19% control at 400 ppm)
"c1ccc(CCCNc2ccnc3ccccc23)cc1 [Example 139, N-(3-phenylpropyl)-4-quinolinamine]",LEAF RUST,[1],+ (20-89% control at 400 ppm)
same,APPL SCAB,[2],- (0-19% control at 400 ppm)
same,mortality at 200 ppm,[3],0%
same,POWD MDEW,[4],+ (20-89% control at 400 ppm)
same,mortality at 12 ppm,corn rootworm,0%
same,mortality at 200 ppm,[5],0%
same,LEAF SPOT,[6],- (0-19% control at 400 ppm)
same,DOWN MDEW,[7],++ (90-100% control at 400 ppm)
same,RICE BLAST,[8],+ (20-89% control at 400 ppm)
same,LEAF BLOT,[9],- (0-19% control at 400 ppm)
same,mortality at 200 ppm,[10],0%
same,GRAY MOLD,[11],- (0-19% control at 400 ppm)
"Fc1cccc2c(NCCCCc3ccc(Cl)cc3)ccnc12 [Example 140, 8-fluoro-N-[4-(4-chlorophenyl)butyl]-4-quinolinamine]",LEAF RUST,[1],+++ (90-100% control at 100 ppm)
same,APPL SCAB,[2],+ (20-89% control at 400 ppm)
same,mortality at 200 ppm,[3],0%
same,mortality at 400 ppm,[3],0%
same,POWD MDEW,[4],+ (20-89% control at 400 ppm)
same,mortality at 12 ppm,corn rootworm,0%
same,mortality at 24 ppm,corn rootworm,0%
same,mortality at 200 ppm,[5],0%
same,mortality at 400 ppm,[5],0%
same,LEAF SPOT,[6],+++ (90-100% control at 100 ppm)
same,DOWN MDEW,[7],+++ (90-100% control at 100 ppm)
same,RICE BLAST,[8],+++ (90-100% control at 100 ppm)
same,LEAF BLOT,[9],+++ (90-100% control at 100 ppm)
same,mortality at 200 ppm,[10],0%
same,mortality at 400 ppm,[10],60%
same,GRAY MOLD,[11],- (0-19% control at 400 ppm)
"Fc1cccc2c(NCCC3=CCCCC3)ccnc12 [Example 143, N-[2-(1-cyclohexenyl)ethyl]-8-fluoro-4-quinolinamine]",LEAF RUST,[1],+++ (90-100% control at 100 ppm)
same,APPL SCAB,[2],- (0-19% control at 400 ppm)
same,mortality at 200 ppm,[3],0%
same,mortality at 400 ppm,[3],0%
same,POWD MDEW,[4],++ (90-100% control at 400 ppm)
same,mortality at 12 ppm,corn rootworm,0%
same,mortality at 24 ppm,corn rootworm,0%
same,mortality at 200 ppm,[5],0%
same,mortality at 400 ppm,[5],0%
same,LEAF SPOT,[6],+ (20-89% control at 400 ppm)
same,DOWN MDEW,[7],+++ (90-100% control at 100 ppm)
same,RICE BLAST,[8],++ (90-100% control at 400 ppm)
same,LEAF BLOT,[9],+ (20-89% control at 400 ppm)
same,mortality at 200 ppm,[10],0%
same,mortality at 400 ppm,[10],0%
same,GRAY MOLD,[11],- (0-19% control at 400 ppm)
"Cc1cc(C)c2nccc(NCCC3=CCCCC3)c2c1 [Example 144, N-[2-(1-cyclohexenyl)ethyl]-6,8-dimethyl-4-quinolinamine]",LEAF RUST,[1],++ (90-100% control at 400 ppm)
same,APPL SCAB,[2],+ (20-89% control at 400 ppm)
same,mortality at 200 ppm,[3],0%
same,mortality at 400 ppm,[3],0%
same,POWD MDEW,[4],- (0-19% control at 400 ppm)
same,mortality at 12 ppm,corn rootworm,0%
same,mortality at 24 ppm,corn rootworm,0%
same,mortality at 200 ppm,[5],0%
same,mortality at 400 ppm,[5],0%
same,LEAF SPOT,[6],+ (20-89% control at 400 ppm)
same,DOWN MDEW,[7],+++ (90-100% control at 100 ppm)
same,RICE BLAST,[8],+ (20-89% control at 400 ppm)
same,LEAF BLOT,[9],- (0-19% control at 400 ppm)
same,mortality at 200 ppm,[10],0%
same,mortality at 400 ppm,[10],0%
same,GRAY MOLD,[11],- (0-19% control at 400 ppm)
"CCc1ccc2nccc(NCCC3=CCCCC3)c2c1 [Example 145, N-[2-(1-cyclohexenyl)ethyl]-6-ethyl-4-quinolinamine]",LEAF RUST,[1],+ (20-89% control at 400 ppm)
same,APPL SCAB,[2],- (0-19% control at 400 ppm)
same,mortality at 200 ppm,[3],0%
same,mortality at 400 ppm,[3],0%
same,POWD MDEW,[4],- (0-19% control at 400 ppm)
same,mortality at 12 ppm,corn rootworm,0%
same,mortality at 24 ppm,corn rootworm,0%
same,mortality at 200 ppm,[5],0%
same,mortality at 400 ppm,[5],0%
same,LEAF SPOT,[6],+ (20-89% control at 400 ppm)
same,DOWN MDEW,[7],+++ (90-100% control at 100 ppm)
same,RICE BLAST,[8],+ (20-89% control at 400 ppm)
same,LEAF BLOT,[9],- (0-19% control at 400 ppm)
same,mortality at 200 ppm,[10],0%
same,mortality at 400 ppm,[10],0%
same,GRAY MOLD,[11],- (0-19% control at 400 ppm)
"c1csc(CCNc2ccnc3ccccc23)c1 [Example 147, N-[2-(2-thienyl)ethyl]-4-quinolinamine]",LEAF RUST,[1],+ (20-89% control at 400 ppm)
same,APPL SCAB,[2],- (0-19% control at 400 ppm)
same,mortality at 200 ppm,[3],0%
same,POWD MDEW,[4],- (0-19% control at 400 ppm)
same,mortality at 12 ppm,corn rootworm,0%
same,mortality at 200 ppm,[5],0%
same,LEAF SPOT,[6],- (0-19% control at 400 ppm)
same,DOWN MDEW,[7],+++ (90-100% control at 100 ppm)
same,RICE BLAST,[8],+ (20-89% control at 400 ppm)
same,LEAF BLOT,[9],- (0-19% control at 400 ppm)
same,mortality at 200 ppm,[10],0%
same,GRAY MOLD,[11],- (0-19% control at 400 ppm)
"c1ccc2c(NCCc3ccsc3)ccnc2c1 [Example 148, N-[2-(3-thienyl)ethyl]-4-quinolinamine]",LEAF RUST,[1],+ (20-89% control at 400 ppm)
same,APPL SCAB,[2],- (0-19% control at 400 ppm)
same,mortality at 200 ppm,[3],0%
same,POWD MDEW,[4],- (0-19% control at 400 ppm)
same,mortality at 12 ppm,corn rootworm,0%
same,mortality at 200 ppm,[5],0%
same,LEAF SPOT,[6],+ (20-89% control at 400 ppm)
same,DOWN MDEW,[7],++ (90-100% control at 400 ppm)
same,RICE BLAST,[8],+ (20-89% control at 400 ppm)
same,LEAF BLOT,[9],- (0-19% control at 400 ppm)
same,mortality at 200 ppm,[10],0%
same,GRAY MOLD,[11],- (0-19% control at 400 ppm)
"Fc1cc(F)c2nccc(NCCc3cccs3)c2c1 [Example 149, 6,8-difluoro-N-[2-(2-thienyl)ethyl]-4-quinolinamine]",LEAF RUST,[1],++ (90-100% control at 400 ppm)
same,APPL SCAB,[2],- (0-19% control at 400 ppm)
same,mortality at 200 ppm,[3],0%
same,POWD MDEW,[4],+ (20-89% control at 400 ppm)
same,mortality at 12 ppm,corn rootworm,0%
same,mortality at 200 ppm,[5],0%
same,LEAF SPOT,[6],+++ (90-100% control at 100 ppm)
same,DOWN MDEW,[7],++ (90-100% control at 400 ppm)
same,RICE BLAST,[8],+ (20-89% control at 400 ppm)
same,LEAF BLOT,[9],+ (20-89% control at 400 ppm)
same,mortality at 200 ppm,[10],0%
same,GRAY MOLD,[11],- (0-19% control at 400 ppm)
